Laboratory results taken from patent US20210346392A1, “PHARMACEUTICAL COMPOSITION FOR ORAL ADMINISTRATION” (ASTELLAS PHARMA INC., priority 2018, published 2021).
Converted amounts (≈) assume the structure as drawn. Where two headings read alike, the source gives them in different places.

What was measured:
[1] = Storage stability: total amount of related substances by HPLC (Experimental Example 1); format: physicochemical; details: stored at 40° C., 75% RH for 1 month, glass bottle, covered
Source text: The storage stability as used herein can be evaluated by measuring the change in the amount of related substances derived from compound A when the pharmaceutical composition for oral administration is stored under certain storage conditions. For example, after the pharmaceutical composition for oral administration is stored under certain conditions, the total amount of related substances of compound A contained in the pharmaceutical composition for oral administration, or a specific related substance of compound A is measured. […] The percentage (%) of the total peak area of related substances with respect to the sum of all peak areas including the peak area of compound A are calculated, and is compared with the value before storage to calculate the amount of change (the amount of increase)(%). Alternatively, as shown in Experimental Example 3 described below, the percentage (%) of the peak area of related substance A with respect to the sum of all peak areas obtained in the same manner is calculated, and it is also possible to evaluate the storage stability by the change over time of related substance A.
The physical mixtures obtained in Example 1 and Comparative Example 1 were placed in glass bottles, covered, and stored at 40° C., 75% RH for 1 month, and the total amount of related substances before and after storage was measured by the method described below. […]

[2] = Solubility of compound A in Japanese Pharmacopoeia dissolution test fluids; format: physicochemical; details: for solubility: Seventeenth Edition
Source text: When compound A was formulated, the solubility of compound A was confirmed based on a Dissolution Test of the Japanese Pharmacopoeia, Seventeenth Edition, and there was a large difference between an acidic pH range and a neutral pH range.

Structure (SMILES): Cc1nc(CN2CCS(=O)(=O)CC2)c2cc(C3CCC(C)(C)CC3)sc2n1 [Compound A, 6-(4,4-Dimethylcyclohexyl)-4-[(1,1-dioxo-1λ^6-thiomorpholin-4-yl)methyl]-2-methylthieno[2,3-d]pyrimidine]
- Increased amount of total related substances (%) (n = 2) [1]: 0.00%
- Increased amount of total related substances (%) (n = 2) ([1]; listed as compound A): did not increase
- difference of solubility between acidic and neutral pH range ([2]; first fluid vs second fluid): approximately 30 times
- solubility ([2]; pH 1.2, simulated gastric fluid, first fluid for a Dissolution Test of the Japanese Pharmacopoeia, read-out: solubility in an acidic pH range): ~41 µg/mL (≈ 101 µM)
- solubility ([2]; pH 6.8, aqueous buffer, second fluid for a Dissolution Test of the Japanese Pharmacopoeia, read-out: solubility at a neutral pH range): ~1.2 µg/mL (≈ 2.94 µM)
